The subject of series [1] is T47D. Kind of series: Cell viability assay (CellTiter-Glo). The following applies: Homo sapiens, 120 h, read-out: Cell viability assay EC50. The class given is cell-based.
Procedure: Cell Culture and Viability Assay
(§1) analysis, cells were plated on day 0 into white 384-well cell culture plates (Greiner Bio-One) using a
(§2) Multidrop reagent dispenser (Thermo) at cell numbers that ensure linear and optimal luminescent
(§3) signal intensity (AN3-CA: 800 cells/well; BT-474: 400 cells/well; Dan-G: 400 cells/well; HPAF-II: 400
(§4) cells/well). Then the cells were incubated for 24 h in a humidified atmosphere at 37 °C/5 % CO2. The
(§5) cells were treated with inhibitors in serial dilutions ranging from 30 µM down to 0.1 nM using an Echo
(§6) 520 acoustic liquid handler (Labcyte Inc.). Cell viability was analysed on day 5 using the CellTiter-Glo
(§7) assay (Promega) as per manufacturer’s instructions. Luminescence signal was recorded by an EnVision
(§8) Multilabel 2104 Plate Reader (PerkinElmer) with 500 ms integration time. All data were normalized to
(§9) the plate positive control (30 µM staurosporine) and negative control (DMSO). Finally, the data was
(§10) processed with the Quattro Software Suite using a four parameter logistic model. As a quality control,
(§11) the Z’-factor was calculated from 16 positive and negative control values. Only assay results showing
(§12) a Z’-factor ≥ 0.5 were used for further analysis. All experimental points were measured in duplicates
(§13) for each plate and were replicated in at least three times.
Series [2] concerns MCF-7. Briefly: Cell viability assay (CellTiter-Glo). The class given is cell-based. The following applies: Homo sapiens, MCF7, 120 h, read-out: Cell viability assay EC50. Background: ATP-based viability assays read luminescence as a measure of living cells.
Procedure: Cell Culture and Viability Assay
as §1, §2, §3, §4, §5, §6, §7, §8, §9, §10, §11, §12, §13
In series [3] the test system is KU-19-19. Briefly: Cell viability assay (CellTiter-Glo). The format is cell-based. The settings on record: Homo sapiens, read-out: Cell viability assay EC50.
Procedure: Cell Culture and Viability Assay
as §1, §2, §3, §4, §5, §6, §7, §8, §9, §10, §11, §12, §13
The test system of series [4] is ZR-75-1. Kind of series: Cell viability assay (CellTiter-Glo). The class given is cell-based. The following applies: Homo sapiens, read-out: Cell viability assay EC50.
Procedure: Cell Culture and Viability Assay
as §1, §2, §3, §4, §5, §6, §7, §8, §9, §10, §11, §12, §13
Series [5] addresses T1, full-length Akt (Akt^wt) (Homo sapiens, UniProt P31749). Kind of series: HTRF KinEASE activity-based assay, IC50 determination. The class given is biochemical. The following applies: for IC50: HTRF KinEASE.
Procedure: (§14) The biochemical inhibitory activity (IC50) was determined with the HTRF KinEASE assay from Cisbio as
(§15) previously described.1 All reagents for HTRF experiments were purchased from Cisbio Bioassays,
(§16) France. The measurements were analyzed using the Quattro Software Suite for IC50-determination.
(§17) Time-dependent IC50-measurements were performed as described. Briefly, IC50 values were
(§18) determined for twelve different incubation times and afterwards plotted versus accordingly. Data was
(§19) analyzed according to literature procedure.2
Series [6] concerns AN3CA. Briefly: Cell viability assay (CellTiter-Glo). The following applies: Homo sapiens, AN3-CA, 120 h, read-out: Cell viability assay EC50. The format is cell-based.
Procedure: Cell Culture and Viability Assay
as §1, §2, §3, §4, §5, §6, §7, §8, §9, §10, §11, §12, §13
Series [7] is described as follows: in vitro. The following applies: human, microsomes.
Procedure: (§20) For this purpose, we used a microsomal stability assay that is a good predictor for phase I metabolic stability.[50]
(§21) Metabolic stability under oxidative conditions was determined by LCMS-based measuring of
(§22) degradation of compounds at 3 µM in human and murine liver microsomes over 60 minutes at 37 °C
(§23) Calculating the compound half-life t1/2, the in vitro intrinsic clearance CLint is
The test system of series [8] is BT-474. Kind of series: Cell viability assay (CellTiter-Glo). The class given is cell-based. The settings on record: Homo sapiens, read-out: Cell viability assay EC50.
Procedure: Cell Culture and Viability Assay
as §1, §2, §3, §4, §5, §6, §7, §8, §9, §10, §11, §12, §13
Series [9] has as its target T1, full-length Akt (Akt^wt). Briefly: Kinetic characterization by time-dependent IC50 measurements. The format is biochemical. The following applies: from time-dependent IC50.
Procedure: as §14, §15, §16, §17, §18, §19
Series [10] in a line: Phase I metabolic stability assay. The settings on record: human.
Procedure: as §20, §21, §22, §23
Where [11] appears, read: 120 h, KU-19-19 (bladder), day 5.

Where two headings read alike, the source gives them in different places. A value given as a limit tells only on which side of the number the result lay.

T1 sequence (P31749 whole entry): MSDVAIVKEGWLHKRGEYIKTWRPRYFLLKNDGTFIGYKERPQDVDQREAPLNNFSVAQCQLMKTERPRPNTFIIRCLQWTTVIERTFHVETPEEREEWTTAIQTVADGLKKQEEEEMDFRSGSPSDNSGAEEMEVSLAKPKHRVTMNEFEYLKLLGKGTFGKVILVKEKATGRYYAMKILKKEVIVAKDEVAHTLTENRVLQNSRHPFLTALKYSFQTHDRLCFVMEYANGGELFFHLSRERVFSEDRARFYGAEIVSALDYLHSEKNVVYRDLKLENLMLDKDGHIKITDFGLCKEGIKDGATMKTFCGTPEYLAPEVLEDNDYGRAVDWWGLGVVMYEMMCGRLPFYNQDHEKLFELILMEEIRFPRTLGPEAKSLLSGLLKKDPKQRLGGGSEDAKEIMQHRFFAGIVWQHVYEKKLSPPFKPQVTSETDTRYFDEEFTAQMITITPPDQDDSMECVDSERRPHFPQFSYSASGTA

Consider `C=CC(=O)Nc1cc2c(cc1Cl)[nH]c(=O)n2C1CCN(Cc2ccc(-c3nc4cc[nH]c(=O)c4cc3-c3ccccc3)cc2)CC1` [24a], for which the EC50 – broadly, the concentration needed to bring the measured effect to its halfway point – in series [1] (T47D (breast), day 5) was found to be 25 ± 7 nM; in series [2] (MCF-7 (breast), day 5), 138 ± 81 nM; in series [3] (setting [11]), 2.31 ± 0.908 µM; in series [4] (120 h, ZR-75-1 (breast), day 5), 2 nM; in [6] (AN3CA (endometrium), day 5), 159 ± 70 nM; in series [8] (120 h, BT-474 (breast), day 5), 259 ± 68 nM. Further, the IC50 (usually the concentration that inhibits the measured activity by half) in series [5] came out at 1.2 ± 0.3 nM. The half-life (commonly the time in which the quantity being followed falls by half) at 1 h, 3 µM in [7] stood at 87 min. In addition, the intrinsic metabolic clearance (microsomal CLint) (commonly a measure of how fast metabolising enzymes remove a compound, apart from limits set by blood flow) at 3 µM in series [7] turned out to be 5 µL/min/mg.

Regarding `CN(C)C/C=C/C(=O)Nc1ccc2[nH]c(=O)n(C3CCN(Cc4ccc(-c5nc6cc[nH]c(=O)c6cc5-c5ccccc5)cc4)CC3)c2c1` [24c], the EC50 in series [1] (T47D (breast), day 5) came out at 2110 ± 49 nM. In addition, in series [9], the Ki was 33 ± 2.4 nM; the kinact (as a rule, the rate constant of inactivation at saturating inhibitor) is 0.000833 s⁻¹; the kinact/KI – broadly, the maximal inactivation rate divided by the concentration that gives half of it – is 25000 ± 5000 M⁻¹ s⁻¹. Moreover, in series [3] (setting [11]), the EC50 is > 30 µM. Moreover, the EC50 in series [4] (120 h, ZR-75-1 (breast), day 5) was 427 ± 23 nM. Besides, in series [5], the “fold loss in inhibitory activity (IC50) compared to 1” value is 20 fold and half-maximal inhibition (IC50) required 18.1 ± 4.9 nM.

Take `C=CC(=O)Nc1ccccc1C(=O)NC1CCN(Cc2ccc(-c3nc4cc[nH]c(=O)c4cc3-c3ccccc3)cc2)CC1` [30a]: the EC50 in [1] (T47D (breast), day 5) was 41 ± 19 nM; in [2] (MCF-7 (breast), day 5), 1020 ± 621 nM; in series [3] (setting [11]) it was 5.54 ± 1.51 µM; in [4] (120 h, ZR-75-1 (breast), day 5), 22 ± 7 nM; in [6] (AN3CA (endometrium), day 5) it was 1330 ± 60 nM; in series [8] (120 h, BT-474 (breast), day 5) it was 2270 ± 700 nM. The compound also displayed a Ki in [9] of 27.2 ± 4.2 nM. Besides, the kinact in [9] is 0.0023 s⁻¹. Besides, in [9], the kinact/KI amounted to 85000 ± 18000 M⁻¹ s⁻¹. Further, the midpoint of inhibition in series [5], the IC50, lay at 10.8 ± 2.5 nM.

`C=CC(=O)Nc1ccc(C(=O)NC2CCN(Cc3ccc(-c4nc5cc[nH]c(=O)c5cc4-c4ccccc4)cc3)CC2)cc1` [30c]: the EC50 in series [1] (T47D (breast), day 5) came out at 1360 ± 454 nM; in series [2] (MCF-7 (breast), day 5), 2840 ± 685 nM; in series [4] (120 h, ZR-75-1 (breast), day 5), 151 ± 47 nM; in series [6] (AN3CA (endometrium), day 5), 3470 ± 1690 nM; in series [8] (120 h, BT-474 (breast), day 5) it was 5210 ± 1890 nM. In addition, the Ki in series [9] is 362 ± 74 nM. Further, the kinact in [9] is 0.0007 s⁻¹. Also, the kinact/KI in series [9] worked out at 2000 ± 1000 M⁻¹ s⁻¹. The compound also displayed an IC50 in series [5] of 285 ± 65 nM.

As for `C=CC(=O)Nc1ccc(C(=O)NC2CCN(Cc3ccc(-c4nc5cc[nH]c(=O)c5cc4-c4ccccc4)cc3)CC2)c(F)c1` [30d], the concentration giving a half-maximal response (EC50) in series [1] (T47D (breast), day 5) worked out at 546 ± 87 nM; in [2] (MCF-7 (breast), day 5) it was 2440 ± 1020 nM; in series [3] (setting [11]) it was 6.07 ± 1.1 µM; in [4] (120 h, ZR-75-1 (breast), day 5), 73 ± 25 nM; in series [6] (AN3CA (endometrium), day 5), 1310 ± 158 nM; in series [8] (120 h, BT-474 (breast), day 5), 1960 ± 391 nM. For the same compound, the Ki in [9] stood at 98.6 ± 10 nM. In series [9], the kinact is 0.00142 s⁻¹. Besides, the kinact/KI in series [9] is 14000 ± 2000 M⁻¹ s⁻¹. In series [5], this compound showed an IC50 of 52.8 ± 16.3 nM.

`C=CC(=O)Nc1cc(Br)cc(C(=O)NC2CCN(Cc3ccc(-c4nc5cc[nH]c(=O)c5cc4-c4ccccc4)cc3)CC2)c1` [30e]: the EC50 in series [1] (T47D (breast), day 5) came to 179 ± 30 nM; in series [2] (MCF-7 (breast), day 5), 224 ± 88 nM; in series [3] (setting [11]), 6.44 ± 1.24 µM; in series [4] (120 h, ZR-75-1 (breast), day 5) it was 10 ± 3 nM; in series [6] (AN3CA (endometrium), day 5), 568 ± 106 nM; in series [8] (120 h, BT-474 (breast), day 5), 621 ± 85 nM. Further, the Ki in series [9] is 7.6 ± 1.1 nM. Further, in series [9], the kinact was 0.0013 s⁻¹. Further, in [9], the inactivation efficiency (kinact/KI) came out at 168000 ± 25000 M⁻¹ s⁻¹. In [5], this compound had an IC50 of 3.7 ± 0.7 nM. The half-life at 1 h, 3 µM in series [10] (liver microsomes) is 39 min. Besides, in series [10] (liver microsomes), the microsomal CLint at 3 µM worked out at 12 µL/min/mg.

`C=CC(=O)Nc1ccc(C(=O)NC2CCN(Cc3ccc(-c4nc5cc[nH]c(=O)c5cc4-c4ccccc4)cc3)CC2)s1` [30f]: the EC50 in series [1] (T47D (breast), day 5) was found to be 183 ± 52 nM; in series [2] (MCF-7 (breast), day 5) it was 1190 ± 518 nM; in series [3] (setting [11]), 3.06 ± 0.848 µM; in series [4] (120 h, ZR-75-1 (breast), day 5) it was 33 ± 9 nM; in series [6] (AN3CA (endometrium), day 5), 879 ± 223 nM; in series [8] (120 h, BT-474 (breast), day 5), 1100 ± 212 nM. Also, in [9], the Ki turned out to be 39.3 ± 6.6 nM. The kinact in series [9] is 0.00147 s⁻¹. Further, in [9], the second-order inactivation constant (kinact/KI) was determined as 38000 ± 7000 M⁻¹ s⁻¹. In [5], this compound returned an IC50 of 14 ± 6.1 nM. The compound further registered a half-life at 1 h, 3 µM in series [10] (liver microsomes) of 39 min. In addition, the microsomal CLint at 3 µM in series [10] (liver microsomes) came out at 12 µL/min/mg.

On to `NC1(C(=O)N[C@@H](CCO)c2ccc(Cl)cc2)CCN(c2ncnc3[nH]ccc23)CC1` [Capivasertib, reference compound], for which the 50% effective concentration (EC50) in [2] (MCF-7 (breast), day 5) was found to be 555 nM. In [10] (liver microsomes), this compound came in with a half-life at 1 h, 3 µM of 33 min and a microsomal CLint at 3 µM of 14 µL/min/mg. In addition, the EC50 in series [8] (120 h, BT-474 (breast), day 5) is 1600 ± 450 nM.

In the case of `COc1cccc2c1C(=O)c1c(O)c3c(c(O)c1C2=O)C[C@@](O)(C(=O)CO)C[C@@H]3O[C@H]1C[C@H](N)[C@H](O)[C@H](C)O1` [Doxorubicin, reference compound], the EC50 came to 127 ± 40 nM in series [1] (T47D (breast), day 5); 153 ± 9 nM in [2] (MCF-7 (breast), day 5); 0.072 ± 0.008 µM in series [3] (setting [11]); 100 ± 26 nM in series [4] (120 h, ZR-75-1 (breast), day 5); 30 ± 9 nM in series [6] (AN3CA (endometrium), day 5); 623 ± 134 nM in series [8] (120 h, BT-474 (breast), day 5).

As to `CC(C)NC[C@@H](C(=O)N1CCN(c2ncnc3c2[C@H](C)C[C@H]3O)CC1)c1ccc(Cl)cc1` [Ipatasertib, reference compound], the EC50 in series [1] (T47D) is 443 ± 6 nM; in series [2] it was 5040 ± 1830 nM; in series [4] (ZR-75-1, 120 h), 219 ± 83 nM; in series [6] it was 925 ± 457 nM; in series [8] (BT-474, 120 h), 2370 ± 745 nM. This compound also displayed a half-life at 1 h, 3 µM in series [10] (liver microsomes) of 39 min. The compound also had a microsomal CLint at 3 µM in series [10] (liver microsomes) of 12 µL/min/mg.

Consider `NC1(c2ccc(-c3nc4ccn5c(=O)[nH]nc5c4cc3-c3ccccc3)cc2)CCC1` [MK-2206, reference compound], for which the EC50 came to 7.05 ± 0.421 µM in [3] (setting [11]); 63 ± 21 nM in series [4] (120 h, ZR-75-1 (breast), day 5); 1680 ± 316 nM in series [8] (120 h, BT-474 (breast), day 5). The half-life at 1 h, 3 µM in series [10] (liver microsomes) came to 347 min. In series [10] (liver microsomes), the microsomal CLint at 3 µM was 1 µL/min/mg.

Consider `C=CC(=O)Nc1ccc2[nH]c(=O)n(C3CCN(Cc4ccc(-c5nc6cc[nH]c(=O)c6cc5-c5ccccc5)cc4)CC3)c2c1` [compound 1, borussertib], for which the EC50 in series [2] worked out at 277 ± 90 nM; in series [3] (KU-19-19, 120 h) it was 7.77 ± 0.641 µM; in series [8] (BT-474, 120 h), 373 ± 54 nM. The compound also gave a half-life at 1 h, 3 µM in series [10] (microsomes) of 99 min. The compound further came in with a microsomal CLint at 3 µM in series [10] (microsomes) of 5 µL/min/mg.

With `C=CC(=O)Nc1ccc(N2CCN(Cc3ccc(-c4nc5cc[nH]c(=O)c5cc4-c4ccccc4)cc3)CC2)cc1` [compound 31], the EC50 was determined as 832 ± 81 nM in [1] (T47D (breast), day 5); 1220 ± 58 nM in series [2] (MCF-7 (breast), day 5); 116 ± 16 nM in series [4] (120 h, ZR-75-1 (breast), day 5); 3610 ± 1290 nM in [6] (AN3CA (endometrium), day 5); 4620 ± 1060 nM in series [8] (120 h, BT-474 (breast), day 5).

In the case of `C=CC(=O)Nc1cccc(CNC2CCN(Cc3ccc(-c4nc5cc[nH]c(=O)c5cc4-c4ccccc4)cc3)CC2)c1` [compound 32], the EC50 in series [1] (T47D (breast), day 5) stood at 1900 ± 578 nM; in [2] (MCF-7 (breast), day 5) it was 2200 ± 125 nM; in series [3] (setting [11]), 6.75 ± 1.46 µM; in series [4] (120 h, ZR-75-1 (breast), day 5) it was 384 ± 62 nM; in series [6] (AN3CA (endometrium), day 5) it was 3290 ± 298 nM; in series [8] (120 h, BT-474 (breast), day 5) it was 4020 ± 912 nM. Further, the Ki in [9] was 327 ± 27 nM. For the same compound, the kinact in series [9] is 0.00118 s⁻¹. The kinact/KI in series [9] came to 4000 ± 1000 M⁻¹ s⁻¹. The IC50 in series [5] was 192 ± 45 nM.
